The source of these data is patent US12258321B1 (University of Jeddah, priority 2024, dated 2025).

pIC50: −log10 of the molar value.

One assay deals with MCF-7 cells. As to the kind of experiment: MTT cytotoxicity test on MCF-7 breast cancer cells. The settings on record: for pIC50: Homo sapiens, MCF7, 24 h, read-out: IC50, cytotoxic activity against MCF7 breast cancer cells. In kind it is cell-based, human. How it is done: The MCF-7 breast cancer cell lines were purchased from VACSERA Tissue Culture Unit (Giza, Egypt). MCF-7 cells were cultured in RPMI medium supplemented with 2 mM glutamine and 10% fetal bovine serum. Both cell cultures included […] streptomycin and 100 units/ml penicillin and were kept in a humidified atmosphere with 5% CO2 at 37° C.
All experiments were performed in triplicate. Data were given as mean±SD.
For orientation: Formazan colour is commonly taken as a measure of viable cells.

For assay [1], the target named is T1, BCL-2 (Homo sapiens, UniProt P10415).
T1 construct: purchased BPS Bioscience
T1 sequence (P10415 whole entry): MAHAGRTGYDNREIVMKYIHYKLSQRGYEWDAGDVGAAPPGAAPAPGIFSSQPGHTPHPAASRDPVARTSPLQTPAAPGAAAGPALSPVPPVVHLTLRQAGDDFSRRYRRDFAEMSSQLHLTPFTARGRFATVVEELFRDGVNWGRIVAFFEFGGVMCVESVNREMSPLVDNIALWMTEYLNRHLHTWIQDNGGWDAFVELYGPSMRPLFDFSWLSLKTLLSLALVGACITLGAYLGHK
The assay is described as follows: BCL-2 inhibition by TR-FRET assay (cell-free). In kind it is binding. The settings on record: read-out: IC50 against BCL-2. How it is done:
(§1) The effectiveness of inhibiting the MCL-1 and BCL-2 proteins was evaluated using specific assay kits (BPS Bioscience, Sandiego, CA) and corresponding ligands for each protein. […] Measurements were taken of Tb-donor emission at 620 nm followed by dye-acceptor emission at 665 nm, and data analysis was performed using the TR-FRET ratio (665 nm emission/620 nm emission). The FRET value from the positive control was considered as full activity (100%) and the FRET value from the negative control was considered as zero percent activity. Then, % inhibitory activity of test compounds was calculated by the equation: % Activity=FRETS−FRETneg/FRETP−FRETneg×100%
(§2) Where FRETS, FRETneg, and FRETp are sample FRET, negative control FRET, and positive control FRET, respectively. The IC50 values of the test compounds were calculated by nonlinear regression analysis on GraphPad Prism 5 (GraphPad Inc., USA).
In general terms: In TR-FRET formats the signal depends on donor and acceptor labels being close together.

A further assay deals with p-MEK1/2. As to the kind of experiment: Western blot of p-MEK1/2 in EGF-stimulated MCF7 cells. In kind it is cell-based, human. The settings on record: MCF7 cells stimulated with EGF for 30 minutes. How it is done: (§3) MCF-7 cells were exposed to compounds Comp-1 and Comp-6 for a period of 24 h, after which western blot analysis was conducted using a previously established protocol^21. To assess the release of cytochrome c, cytosolic and mitochondrial fractions were prepared in accordance with the methods outlined by Kawiak et al^21. Specific primary antibodies were utilized viz; anti-β-actin (1:1,000) (Cell Signaling, Danvers, MA, USA), anti-Bcl-2, anti-Bax, and anti-Mcl-1 (1:250) (Santa Cruz, Heidelberg, Germany), anti-ERK1/2, anti-MEK1/2, anti-p-ERK1/2, and anti-p-MEK1/2 (1:1,000) (Cell Signaling), and anti-cytochrome c (1:5,000) (Abcam, UK), and membranes were subjected to an overnight incubation with these antibodies at 4° C. This was followed by a 1 h incubation with HRP-conjugated secondary antibodies (1:2000) (Cell Signaling). The levels of protein were then determined using chemiluminescence (ChemiDoc; Bio-Rad, Waltham, MA, USA) with an HRP substrate (Thermo Scientific, MA, USA).
(§4) To investigate the impact of exemplary compounds on the cancer-promoting MAPK pathway in MCF7 breast cancer cells, we stimulated the cells with epidermal growth factor (EGF) for 30 minutes to induce p-ERK1/2 and p-MEK1/2 protein expression.
(A western blot detects proteins with antibodies after separation by electrophoresis.)

The test system of another assay is p-ERK1/2. As to the kind of experiment: Western blot of p-ERK1/2 in EGF-stimulated MCF7 cells. The settings on record: MCF7 cells stimulated with EGF for 30 minutes. In kind it is cell-based, human. How it is done:
as §3, §4

Assay [2] has as its target T2, MCL-1 (Homo sapiens, UniProt Q07820).
T2 construct: purchased BPS Bioscience
The assay is described as follows: MCL-1 inhibition by TR-FRET assay (cell-free). In kind it is binding. The settings on record: read-out: IC50 against MCL-1. How it is done: as §1, §2

For another assay, the system named is BAX. The assay is described as follows: Western blot of BAX level in MCF7 cells. It is filed as cell-based, human. The settings on record: 24 hours. How it is done: as §3
(§5) The cytotoxic mechanisms of the exemplary compounds Comp-1 and Comp-6 were investigated. Given that apoptosis is a common mechanism of action for many cancer therapies, we analyzed the levels of apoptotic markers BAX, BCL-2 and MCL-1 after treating MCF7 cells with Comp-1 and Comp-6 for 24 hours. Western blot analysis was performed on cell lysates and compared to untreated cell lysates.

Assay [3] has as its system BCL-2. The assay is described as follows: Western blot of BCL-2 expression in MCF7 cells. The settings on record: 24 hours, vs untreated. In kind it is cell-based, human. How it is done:
as §3, §5

The subject of assay [4] is MCL-1. The assay is described as follows: Western blot of MCL-1 expression in MCF7 cells. In kind it is cell-based, human. The settings on record: 24 hours, vs untreated. How it is done:
as §3, §5

T2 sequence (Q07820 whole entry): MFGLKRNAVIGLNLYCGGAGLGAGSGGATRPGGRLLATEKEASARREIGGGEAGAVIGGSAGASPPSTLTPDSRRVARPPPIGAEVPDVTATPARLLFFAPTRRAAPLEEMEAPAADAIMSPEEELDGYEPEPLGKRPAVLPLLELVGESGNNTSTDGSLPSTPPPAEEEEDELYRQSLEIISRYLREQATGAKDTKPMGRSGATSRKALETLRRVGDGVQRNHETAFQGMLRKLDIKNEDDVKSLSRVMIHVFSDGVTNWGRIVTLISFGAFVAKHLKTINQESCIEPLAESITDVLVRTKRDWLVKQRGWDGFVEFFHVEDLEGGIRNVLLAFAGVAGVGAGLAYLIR

As a reminder, the pIC50 is −log10 of the IC50, conventionally taken in molar units. Regarding `O=C(Cc1ccc(-n2cc(COCc3ccccc3)nn2)cc1)NCc1ccccc1` [Comp-5, N-benzyl-2-(4-(4-((benzyloxy)methyl)-1H-1,2,3-triazol-1-yl)phenyl)acetamide], the pIC50 in the assay with MCF-7 cells was 5.49.
Take `O=C(Cc1ccc(-n2cc(CO)nn2)cc1)NCc1ccccc1` [Comp-1, N-benzyl-2-(4-(4-(hydroxymethyl)-1H-1,2,3-triazol-1-yl)phenyl)acetamide]: the pIC50 at BCL-2 [1] is 6.29; on MCL-1 [2], 6.44; in the assay on MCF-7 cells it was 5.96. In addition, the “reduction of p-MEK1/2 signal” value in the assay on p-MEK1/2 is listed as 65.3%. For the same compound, the “reduction of p-ERK1/2 signal” value with p-ERK1/2 is reported as 46.1%. In addition, the “BAX increase compared to untreated cells (Control)” value in the assay on BAX is on record as “more than five-fold”. For the same compound, the “reduction of BCL-2 expression” value in the assay with BCL-2 [3] amounted to 65.3%. Besides, the “reduction of MCL-1 expression” value in the assay with MCL-1 [4] came out at 65.4%. For the same compound, the “potency relative to the reference drug Staurosporine (fold higher)” value in the assay with MCF-7 cells (MCF7 cytotoxicity IC50 ratio) is recorded as “approximately 5 fold”.
On to `O=C(Cc1ccc(-n2cc(COc3cccc4ccccc34)nn2)cc1)NCc1ccccc1`, for which the pIC50 is 5.72 at BCL-2 [1], 6.12 at MCL-1 [2] and 5.73 in the assay with MCF-7 cells. Moreover, the “reduction of p-MEK1/2 signal” value in the assay on p-MEK1/2 is listed as 55.9%. For the same compound, in the assay with p-ERK1/2, the “reduction of p-ERK1/2 signal” value was 50.7%. Moreover, the “BAX increase compared to untreated cells (Control)” value in the assay with BAX was “nine-fold”. The “reduction of BCL-2 expression” value with BCL-2 [3] is 55.9%. The “reduction of MCL-1 expression” value with MCL-1 [4] is reported as 43.7%.
